Data: patent publication US7125877B2, “Benzimidazole derivatives” (Banyu Pharmaceutical Co., Ltd., priority 2002, dated 2006)
Where a name gives a salt, the structure may show the parent alone.

How the values were obtained:
[1] = target: T1, nociceptin receptor ORL1 (Homo sapiens, UniProt P41146); assay: Nociceptin receptor binding inhibition assay ([125I]Tyr14-Nociceptin, SPA, CHO/ORL1 membranes); details: 50 pM [125I]Tyr14-Nociceptin, CHO/ORL1 membrane, 37° C. for 60 minutes; read-out: IC50 value, nociceptin receptor binding inhibition action
T1 construct: expressed in transfected cells
T1 sequence (P41146 whole entry): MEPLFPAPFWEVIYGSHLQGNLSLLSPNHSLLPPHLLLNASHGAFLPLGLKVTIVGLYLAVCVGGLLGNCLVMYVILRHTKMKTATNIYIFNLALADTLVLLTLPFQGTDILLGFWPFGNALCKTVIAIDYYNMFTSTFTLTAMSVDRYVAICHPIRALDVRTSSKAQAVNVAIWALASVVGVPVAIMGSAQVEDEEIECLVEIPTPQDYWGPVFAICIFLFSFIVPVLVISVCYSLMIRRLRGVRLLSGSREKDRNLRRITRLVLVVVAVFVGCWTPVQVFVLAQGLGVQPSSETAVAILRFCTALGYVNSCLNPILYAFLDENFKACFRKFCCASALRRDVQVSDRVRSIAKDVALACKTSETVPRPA
Method: Pharmacological Test Example 1 (Nociceptin Receptor Binding Inhibition Assay)
cDNA which codes a human nociceptin receptor gene was cloned into an expression vector pCR3 (Invitrogen) to prepare pCR3/ORL1. Next, pCR3/ORL1 was transfected in CHO cells using a transfectam (Nippongene) to obtain a stable expression strain (CHO/ORL1 cells) having resistance against 1 mg/ml G418. Membrane fractions were prepared from this stable expression strain to carry out a receptor binding assay.
The membrane of 11 μg, 50 pM [^125I] Tyr^14-Nociceptin (Amersham Pharmacia), 1 mg Wheatgerm agglutinin SPA beads (PVT based; Amersham Pharmacia) and each test compound were suspended in an NC buffer (50 mM Hepes, 10 mM sodium chloride, 1 mM magnesium chloride, 2.5 mM calcium chloride, 0.1% BSA, 0.025% bacitracin, pH 7.4) and incubated at 37° C. for 60 minutes, and then the radioactivity was determined. The binding activity to the nociceptin receptor was indicated by the 50% inhibition concentration (IC50 value) of [^125I]Tyr^14-Nociceptin binding by each compound of the present invention.

[2] = target: T1, nociceptin receptor ORL1; assay: Antagonism against nociceptin-elicited G protein activation (GTPγ[35S] binding, CHO/ORL1 membranes); type: biochemical; details: 50 nM nociceptin, 200 pM GTPγ[35S], CHO/ORL1 membrane, 25° C. for 150 minutes
Method: Pharmacological Test Example 2 (Antagonism Against Nociceptin-elicited G Protein Activation)
CHO cells which stably represented a nociceptin receptor ORL1 were used to investigate the action of each tested compound against nociceptin-elicited G protein activation. A membrane prepared from the CHO/ORL1 cells, 50 nM nociceptin, 200 pM GTPγ[^35S] (NEN), 1.5 mg Wheatgerm agglutinin SPA beads (Amersham Pharmacia) and each of the tested compounds were mixed in a GDP buffer (20 mM Hepes, 100 mM sodium chloride, 10 mM magnesium chloride, 1 mM EDTA, 5 μM GDP, pH 7.4) and incubated at 25° C. for 150 minutes, and then the radioactivity was determined. The antagonism against nociceptin-elicited G protein activation was shown by the 50% inhibition concentration (IC50 value) of each tested compound against GTPγ[^35S] binding.

| IC50 [1] | IC50 [2] | SMILES |
| --- | --- | --- |
| 0.51 nM | 0.82 nM | CCN1CCN(c2cc3[nH]c(C(=O)[C@]4(C)CC[C@@H](NC(=O)OC)CC4)nc3cc2Cl)C(C)C1 (single isomer, unassigned) [Example 1(2S*), 5-chloro-6-[4-ethyl-(2S*)-2-methylpiperazin-1-yl]-2-[(1,4-trans)-4-methoxycarbonylamino-1-methylcyclohexylcarbonyl]benzimidazole] |
| 0.99 nM | 0.63 nM | COC(=O)N[C@H]1CC[C@](C)(C(=O)c2nc3cc(C)c(N4CCN(CCO)CC4C)cc3[nH]2)CC1 (single isomer, unassigned) [Example 11(2S*), 6-[4-(2-hydroxyethyl)-(2S*)-2-methylpiperazin-1-yl]-2-[(1,4-trans)-4-methoxycarbonylamino-1-methylcyclohexylcarbonyl]-5-methylbenzimidazole-fumaric acid salt] |
| 0.41 nM | 0.92 nM | COC(=O)N[C@H]1CC[C@](C)(C(=O)c2nc3cc(Cl)c(N4CCN(CCO)CC4C)cc3[nH]2)CC1 (single isomer, unassigned) [Example 6(2S*), 5-chloro-6-[4-(2-hydroxyethyl)-(2S*)-2-methylpiperazin-1-yl]-2-[(1,4-trans)-4-methoxycarbonylamino-1-methylcyclohexylcarbonyl]benzimidazole-fumaric acid salt] |
| 29 nM | – | CCN1CCN(c2cc3[nH]c(C(=O)N(C)C4CCCCC4)nc3cc2Cl)C(C)C1 (stereo not drawn) [Example 39(2S*)] |
| 2.1 nM | 2.8 nM | CCN1CCN(c2cc3[nH]c(C(=O)[C@]4(C)CC[C@@H](O)CC4)nc3cc2Cl)C(C)C1 (single isomer, unassigned) [Example 24(2S*), 5-chloro-6-[4-ethyl-(2S*)-2-methylpiperazin-yl]-2-[(1,4-trans)-4-hydroxy-1-methylcyclohexylcarbonyl]benzimidazole] |
| 0.19 nM | 0.42 nM | CCN1CCN(c2cc3[nH]c(C(=O)[C@]4(CC)CC[C@@H](NC(=O)OC)CC4)nc3cc2Cl)C(C)C1 (single isomer, unassigned) [Example 15(2S*), 5-chloro-2-[(1,4-trans)-1-ethyl-4-(methoxycarbonylamino)-cyclohexylcarbonyl]-6-[4-ethyl-(2S*)-2-methylpiperazin-1-yl]benzimidazole-fumaric acid salt] |
| 1.4 nM | 0.65 nM | CCN1CCN(c2cc3[nH]c(C(=O)[C@]4(C)CC[C@@](C)(O)CC4)nc3cc2Cl)CC1 [Example 51, 5-chloro-2-[(1,4-trans)-1,4-dimethyl-4-hydroxycyclohexylcarbonyl]-6-(4-ethylpiperazin-1-yl) benzimidazole] |
| 0.22 nM | 0.36 nM | CCN1CCN(c2cc3[nH]c(C(=O)[C@]4(CC)CC[C@@H](NC(=O)OC)CC4)nc3cc2C)C(C)C1 (single isomer, unassigned) [Example 47(2S*), 2-[(1,4-trans)-1-ethyl-4-(methoxycarbonylamino)-cyclohexylcarbonyl]-6-[4-ethyl-(2S*)-2-methylpiperazin-1-yl]-5-methylbenzimidazole-fumaric acid salt] |
| 0.2 nM | 0.63 nM | CCN1CCN(c2cc3[nH]c(C(=O)[C@]4(C)CC[C@@H](NC(=O)OC)CC4)nc3cc2C)C(C)C1 (single isomer, unassigned) [Example 2(2S*), 6-[4-ethyl-(2S*)-2-methylpiperazin-1-yl]-2-[(1,4-trans)-4-methoxycarbonylamino-1-methylcyclohexylcarbonyl]-5-methylbenzimidazole] |
| 1.9 nM | 1.5 nM | CCN1CCN(c2cc3[nH]c(C(=O)C4(C)CCN(C(C)=O)CC4)nc3cc2C)C(C)C1 (single isomer, unassigned) [Example 27(2S*), 2-(1-acetyl-4-methylpiperidinyl-4-carbonyl)-6-[4-ethyl-(2S*)-2-methylpiperazin-1-yl]-5-methylbenzimidazole] |
| 0.55 nM | 1 nM | COC[C@]1(C(=O)c2nc3cc(C)c(N4CCN5CCC[C@H]5C4)cc3[nH]2)CC[C@](C)(O)CC1 [Example 53, 6-[(S)-1,4-ziazabicyclo[4.3.0]nonan-4-yl]-2-[(1,4-trans)-4-hydroxy-1-methoxymethyl-4-methylcyclohexylcarbonyl]-5-methylbenzimidazole] |
